# Results taken from US20100113504A1, “AMIDE COMPOUNDS AND THEIR USE AS ANTITUMOR AGENTS” (SIGMA-TAU INDUSTRIE FARMACEUTICHE RIUNITE S.P.A., priority 2007, published 2010).
# Read-outs that look alike come from different tables or passages of the source.
# Assays:
# [1] = rcm bond
# [2] = rcm bond, Grubbs II, CH2Cl2, 1.0 mM
# [3] = test system: HCT-116 human colon carcinoma cells; assay: Cytotoxicity (sulphorodamine B) on HCT-116 tumor cells; type: cell-based; conditions: Homo sapiens, HCT-116 cells, 24 h treatment, then 48 h in drug-free medium, read-out: IC50 ± SD, HCT-116
# Procedure: (§1) Tumor cells were seeded in 96-well tissue culture plates at approximately 10% confluence and were allowed to attach and recover for at least 24 h. […] The plates were incubated for 24 h at 37° C. At the end of the treatment, for NB4 tumor cells in suspension, the procedure was performed as follows: medium culture was removed by centrifugation of the plates at 1600×g for 10 min and the surnatant was removed. 250 μl PBS were added, then the plates were centrifuged at 1600×g for 10 min, the surnatant was removed. […] The plates were centrifuged again at 1600×g for 10 min, the medium culture was removed and 200 μl PBS and 50 μl of cold 80% TCA were added. The plates were incubated on ice for at least 1 h. TCA was removed, the plates were washed 3 times for immersion in distilled-water and dried before on paper, then in a thermostater at 40° C. Subsequently 200 μl of 0.4% sulphorodamine B in 1% acetic acid were added. The plates were incubated at room temperature for other 30 min. Sulphorodamine B was removed, the plates were washed for immersion in 1% acetic acid for 3 times, then they were washed and dried on paper. 200 μl Tris 10 mM were added, the plates were kept under stirring for 20 min. The survival cell was determined as optical density by a Multiskan spectrofluorimeter at 540 nm. […] Also the last day of the assay, the surnatant was removed without centrifugation.
# (§2) The amount of cells killed was calculated as the percentage decrease in sulphorodamine B binding compared with control cultures.
# [4] = test system: NCI-H460 non-small cell carcinoma cells; assay: Cytotoxicity (sulphorodamine B) on NCI-H460 tumor cells; type: cell-based; conditions: Homo sapiens, 24 h treatment, then 48 h in drug-free medium, read-out: IC50 ± SD, NCI-H460
# Procedure: as §1, §2
# [5] = test system: NB4 human promyelocitic leukaemia; assay: Cytotoxicity (sulphorodamine B) on NB4 tumor cells; type: cell-based; conditions: Homo sapiens, NB-4, 24 h treatment, then 48 h in drug-free medium, read-out: IC50 ± SD, NB4
# Procedure: To test the effects of the compounds on cell growth, NB4 human promyelocitic leukaemia, NCI-H460 non-small cell carcinoma cells and HCT-116 human colon carcinoma cells were used. NB4 and NCI-H460 tumor cells were grown RPMI 1640 containing 10% fetal bovine serum (GIBCO), whereas HCT-116 tumor cells were grown in McCoy's 5A containing 10% fetal bovine serum (GIBCO).
# Tumor cells were seeded in 96-well tissue culture plates at approximately 10% confluence and were allowed to attach and recover for at least 24 h. […] The plates were incubated for 24 h at 37° C. At the end of the treatment, for NB4 tumor cells in suspension, the procedure was performed as follows: medium culture was removed by centrifugation of the plates at 1600×g for 10 min and the surnatant was removed. 250 μl PBS were added, then the plates were centrifuged at 1600×g for 10 min, the surnatant was removed. 200 μl/well of medium culture RPMI 1640 containing 10% FCS were added and the plates were incubated at 37° C. for other 48 h. The plates were centrifuged again at 1600×g for 10 min, the medium culture was removed and 200 μl PBS and 50 μl of cold 80% TCA were added. The plates were incubated on ice for at least 1 h. TCA was removed, the plates were washed 3 times for immersion in distilled-water and dried before on paper, then in a thermostater at 40° C. Subsequently 200 μl of 0.4% sulphorodamine B in 1% acetic acid were added. The plates were incubated at room temperature for other 30 min. Sulphorodamine B was removed, the plates were washed for immersion in 1% acetic acid for 3 times, then they were washed and dried on paper. 200 μl Tris 10 mM were added, the plates were kept under stirring for 20 min. The survival cell was determined as optical density by a Multiskan spectrofluorimeter at 540 nm. For the tumor cells in adhesion (NCI-H460 and HCT-116), the procedure was as above mentioned, except that the at the end of the treatment, the plates were washed by remotion of the surnatant and addition of PBS 3 times and not by centrifugation. Also the last day of the assay, the surnatant was removed without centrifugation.
# as §2
# [6] = test system: NB4, NCI-H460 and HCT-116 tumor cells; assay: Cytotoxicity summarised over the three tumor cell lines; type: cell-based; conditions: Homo sapiens; mean over NB4, NCI-H460, HCT-116; 24 h of treatment
# Procedure: as §1, §2
compound,measurement,setting,value
COC(=O)CCCCC[C@H]1C(=O)Nc2ccccc2OCCCC=CCN1C(=O)OC(C)(C)C,"ring closure, yield of all isomers",[1]; from C=CCCCOc1ccccc1NC(=O)[C@H](CCCCCC(=O)OC)N(CC=C)C(=O)OC(C)(C)C,84%
COC(=O)CCCCC[C@H]1C(=O)Nc2ccccc2OCCCCC=CCN1C(=O)OC(C)(C)C,"ring closure, yield of all isomers",[1]; from C=CCCCCOc1ccccc1NC(=O)[C@H](CCCCCC(=O)OC)N(CC=C)C(=O)OC(C)(C)C,82%
7-(S)-Allyl-tert-butoxycarbonylamino)-7-(2-hex-5-enyloxyphenylcarbamoyl)heptanoic acid methyl ester,"ring closure, isolated yield","[2]; the molecule shown is the open-chain precursor, 14-membered ring",82%
7-(S)-Allyl-tert-butoxycarbonylamino)-7-(2-pent-4-enyloxyphenylcarbamoyl)heptanoic acid methyl ester,"ring closure, isolated yield","[2]; the molecule shown is the open-chain precursor, 13-membered ring",84%
COC(=O)CCCCCC1OCC=CCC(c2ccc(OC)cc2)Oc2ccccc2NC1=O (racemic),"ring closure, isolated yield","[2]; from C=CCOC(CCCCCC(=O)OC)C(=O)Nc1ccccc1OC(CC=C)c1ccc(OC)cc1, 12-membered ring",45%
COC(=O)CCCCCC1OCC=CCCCOc2ccncc2NC1=O (racemic),"ring closure, yield of all isomers",[1]; from C=CCCCOc1ccncc1NC(=O)C(CCCCCC(=O)OC)OCC=C,45%
same,"ring closure, isolated yield","[2]; from C=CCCCOc1ccncc1NC(=O)C(CCCCCC(=O)OC)OCC=C, 13-membered ring",45%
COC(=O)CCCCCC1OCC=Cc2cc(cc(OC)c2)COc2ccccc2NC1=O (racemic),"ring closure, isolated yield","[2]; from C=CCOC(CCCCCC(=O)OC)C(=O)Nc1ccccc1OCc1cc(C=C)cc(OC)c1, 14-membered ring",52%
"COc1cc(COC(CCCCCC(=O)NO)C(=O)Nc2ccccc2)cc(OC)c1 (racemic) [Compound 9j, (±)-2-(3,5-Dimethoxybenzyloxy)octanedioic acid 8-hydroxyamide 1-phenylamide]",IC50,[3],300 ± 8 nM
same,IC50,[4],400 ± 70 nM
same,IC50,[5],50 ± 5 nM
same,IC50,[6],< 1000 nM
"O=C(CCCCCC(OCc1cccc(Oc2ccccc2)c1)C(=O)Nc1ccccc1)NO (racemic) [Compound 9k, (±)-2-(3-Phenoxybenzyloxy)-octanedioic acid 8-hydroxyamide 1-phenylamide]",IC50,[3],700 ± 80 nM
same,IC50,[4],700 ± 40 nM
same,IC50,[5],200 ± 9 nM
same,IC50,[6],< 1000 nM
"COc1ccc(NC(=O)C(CCCCCC(=O)NO)OCc2ccccc2)cc1 (racemic) [Compound 9l, (±)-2-Benzyloxyoctanedioic acid 8-hydroxyamide 1-[(4-methoxyphenyl)-amide]]",IC50,[3],500 ± 60 nM
same,IC50,[4],1000 ± 90 nM
same,IC50,[5],200 ± 20 nM
same,IC50,[6],< 1000 nM
"COc1ccc(COC(CCCCCC(=O)NO)C(=O)Nc2ccc(OC)cc2)cc1 (racemic) [Compound 9m, (±)-2-(4-Methoxybenzyloxy)octanedioic acid 8-hydroxyamide 1-[(4-methoxyphenyl)amide]]",IC50,[3],300 ± 10 nM
same,IC50,[4],300 ± 40 nM
same,IC50,[5],100 ± 40 nM
same,IC50,[6],< 1000 nM
"COc1ccc(COC(CCCCCCC(=O)NO)C(=O)Nc2ccccc2)cc1 (racemic) [Compound 13d, (±)-2-(4-Methoxybenzyloxy)nonanedioic acid 9-hydroxyamide 1-phenylamide]",IC50,[3],500 ± 100 nM
same,IC50,[4],700 ± 30 nM
same,IC50,[5],300 ± 30 nM
same,IC50,[6],< 1000 nM
"COc1ccc(CO[C@H](CCCCCC(=O)NO)C(=O)Nc2ccccc2)cc1 [(R)-9d, 2-(R)-(4-Methoxybenzyloxy)octanedioic acid 8-hydroxyamide 1-phenylamide]",IC50,[3],400 ± 10 nM
same,IC50,[4],500 ± 30 nM
same,IC50,[5],70 ± 10 nM
same,IC50,[6],< 1000 nM
